Where two headings read alike, the source gives them in different places.
Tests used:
CDK8/Cyclin C = CDK8/Cyclin C (Homo sapiens (Human), UniProt P49336); test: CDK8/Cyclin C binding assay (LanthaScreen Eu-Kinase Binding Assay); conditions: binding assay
Method: The enzyme has been purchase from Invitrogen (PV4402) as a dimer of full-length His-tagged recombinant human proteins.
Assays were performed in 384-well plates. The final read out was generated using an EnVision plate reader (Perkin-Elmer).

SW620 = test: In vitro cell proliferation assay (CellTiter-Glo), SW620; type: cell-based, human; conditions: Homo sapiens, SW-620, growth inhibition, read-out: GI50 SW620
intracellular HASPIN = intracellular HASPIN (Homo sapiens (Human), UniProt Q8TF76); test: Cellular HASPIN inhibition assay, western blot phospho H3T3 in synchronized SW620 cells; type: cell-based; conditions: read-out: SW620 PH3(T3) in synchronized cells
Method: Compounds can be screened for their ability to inhibit intracellular HASPIN using a western blot assay to detect phosphorylation of the HASPIN substrate H3T3 in synchronized cells. SW620 cells are plated at 200000 cells per well in 6-well plates (Solmeglas 13118) in RPMI media (Sigma-Aldrich R6504) supplemented with 10% foetal bovine serum (Sigma-Aldrich F7524), Penicillin/Streptomycin solution diluted 1:100 (Gibco 15070-063), and fungizone (Gibco, 15290-018), and allowed to adhere overnight at 37° C. in 5% CO2. Cells are then treated 16 h hours with Nocadazole (Sigma-Aldrich M1404) at 250 ng/ml to arrest them in mitosis. Proteasoma inhibitor MG132 (Sigma-Aldrich C2211) is added to a final concentration of […] to keep cells arrested in mitosis. Compounds are then added to the cell media from a final concentration of 10 μM in 10-fold serial dilutions and the cells are incubated at 37° C. in 5% CO2. After 1 hour and 30 minutes of treatment with the compounds, the cells are washed in PBS, lysed adding 100 μl of protein lysis buffer (62.5 mM Tris pH 6.8 al 6.25%, 2% SDS y 10% glycerol) incubation 10 minutes at room temperature and heating at 95° C. 10 min. The protein content of the lysates is determined by DC protein assay (Biorad, Ref. 5000116). The proteins are resolved by SDS-PAGE and transferred to nitrocellulose membrane (VWR International eurolab, Ref. 732-4007). The membranes are incubated overnight at 4° C. with antibodies specific for total H3 (Millipore #07424), phosphothreonine-3 H3 (Cell Signaling Ref. 14269) they are washed and then incubated with IRDye800 conjugated anti-mouse (Pierce/Cultek, 35521) and Alexa Fluor 680 goat anti-rabbit IgG secondary antibodies (Invitrogen, A21076). The bands are visualized and quantified using an Odyssey infrared imaging system (Li-Cor Biosciences). The percentage of phosphorylated H3 vs total H3 in synchronized cells is taken as hundred percent of phosphorylation. The percentage of H3 phosphorylation is finally plotted against concentration for each compound and EC50s for intracellular HASPIN inhibition are calculated using ActivityBase from IDBS.

Haspin kinase = Haspin kinase (Homo sapiens (Human), UniProt Q8TF76); test: Haspin kinase assay (ADP-Glo); type: biochemical; conditions: ATP 150 μM
How it was run: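 Compounds in 1:3 serial dilutions (1% DMSO final) were incubated 60 min at 30 °C with 20 nM recombinant GST-Haspin kinase domain and 150 μM ATP, without substrate, in pH 7.4 HEPES/MgCl2 buffer. ADP formed was read by luciferase luminescence and normalized to uninhibited enzyme to give % inhibition.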

MDA-MB-231 = test: In vitro cell proliferation assay (CellTiter-Glo), MDA-MB-231; type: cell-based; conditions: Homo sapiens, MDA-MB-231, growth inhibition, read-out: GI50 MDA-MB-231

Sequence of Haspin kinase (Q8TF76 484-798): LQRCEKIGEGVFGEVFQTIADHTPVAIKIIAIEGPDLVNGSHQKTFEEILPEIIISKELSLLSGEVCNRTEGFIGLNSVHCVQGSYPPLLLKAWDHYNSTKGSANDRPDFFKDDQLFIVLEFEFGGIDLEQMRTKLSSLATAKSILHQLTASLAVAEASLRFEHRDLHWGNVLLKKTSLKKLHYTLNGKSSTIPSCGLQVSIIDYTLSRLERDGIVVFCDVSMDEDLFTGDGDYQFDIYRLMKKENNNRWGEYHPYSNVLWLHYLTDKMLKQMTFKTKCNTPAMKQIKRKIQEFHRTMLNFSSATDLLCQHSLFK
Sequence of intracellular HASPIN (Q8TF76 whole entry): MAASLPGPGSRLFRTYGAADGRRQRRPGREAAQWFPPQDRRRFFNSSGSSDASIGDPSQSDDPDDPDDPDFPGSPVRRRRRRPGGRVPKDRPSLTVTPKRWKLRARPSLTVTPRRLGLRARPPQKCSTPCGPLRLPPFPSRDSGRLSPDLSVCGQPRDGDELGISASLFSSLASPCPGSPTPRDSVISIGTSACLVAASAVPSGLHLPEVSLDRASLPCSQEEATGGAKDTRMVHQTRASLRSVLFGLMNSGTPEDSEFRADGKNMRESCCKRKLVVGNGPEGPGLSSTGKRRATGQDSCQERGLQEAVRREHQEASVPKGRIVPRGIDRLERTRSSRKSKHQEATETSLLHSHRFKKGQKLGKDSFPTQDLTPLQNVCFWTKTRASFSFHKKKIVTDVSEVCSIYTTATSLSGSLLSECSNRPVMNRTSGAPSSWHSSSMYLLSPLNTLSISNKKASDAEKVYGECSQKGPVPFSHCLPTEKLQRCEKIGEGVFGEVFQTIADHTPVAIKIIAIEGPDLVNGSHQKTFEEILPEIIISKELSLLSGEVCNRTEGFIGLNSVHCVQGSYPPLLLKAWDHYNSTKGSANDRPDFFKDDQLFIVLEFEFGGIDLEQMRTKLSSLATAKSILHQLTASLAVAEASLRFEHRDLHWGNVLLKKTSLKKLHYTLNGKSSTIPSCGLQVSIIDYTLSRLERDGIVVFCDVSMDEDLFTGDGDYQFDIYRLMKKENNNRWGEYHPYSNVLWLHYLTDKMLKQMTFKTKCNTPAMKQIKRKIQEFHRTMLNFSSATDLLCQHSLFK
Sequence of CDK8/Cyclin C (P49336 whole entry): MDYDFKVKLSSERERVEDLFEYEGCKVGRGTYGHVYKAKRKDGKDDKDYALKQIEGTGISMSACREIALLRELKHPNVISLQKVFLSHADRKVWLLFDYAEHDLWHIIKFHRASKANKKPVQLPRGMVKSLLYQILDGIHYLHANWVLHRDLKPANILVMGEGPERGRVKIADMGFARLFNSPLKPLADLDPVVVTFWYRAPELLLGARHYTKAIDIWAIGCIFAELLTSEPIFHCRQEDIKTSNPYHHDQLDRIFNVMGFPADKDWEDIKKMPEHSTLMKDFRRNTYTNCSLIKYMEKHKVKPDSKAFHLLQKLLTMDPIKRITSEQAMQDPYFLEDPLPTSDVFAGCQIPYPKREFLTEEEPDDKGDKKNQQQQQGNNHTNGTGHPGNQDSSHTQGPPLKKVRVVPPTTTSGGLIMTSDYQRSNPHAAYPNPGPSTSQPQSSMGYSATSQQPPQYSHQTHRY
Sequence of CDK8/Cyclin C (P24863 whole entry partner): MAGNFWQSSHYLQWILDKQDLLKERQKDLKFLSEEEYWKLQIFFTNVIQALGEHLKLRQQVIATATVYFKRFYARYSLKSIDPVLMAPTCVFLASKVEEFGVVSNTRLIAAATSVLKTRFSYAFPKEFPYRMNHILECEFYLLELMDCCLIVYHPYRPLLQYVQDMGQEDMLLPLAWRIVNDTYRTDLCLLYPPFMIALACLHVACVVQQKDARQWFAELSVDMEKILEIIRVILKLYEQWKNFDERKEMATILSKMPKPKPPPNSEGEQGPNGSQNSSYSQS

| Structure (SMILES) | IC50 (CDK8/Cyclin C) [nM] | GI50 (SW620; semiquantitative) [nM] | EC50 (intracellular HASPIN; semiquantitative) [nM] | IC50 (Haspin kinase) [nM] | GI50 (MDA-MB-231; semiquantitative) [nM] | GI50 (SW620; quantitative) [nM] | EC50 (intracellular HASPIN; quantitative) [nM] | GI50 (MDA-MB-231; quantitative) [nM] |
| --- | --- | --- | --- | --- | --- | --- | --- | --- |
| CCn1c(C(N)=O)c(-c2ccccc2OC)c2c1-c1ccncc1OC2(C)C [Example 68] | 3.23 | 10000 to 100000 | < 500 | 354 | 10000 to 100000 |  |  |  |
| CC1(C)Oc2cnccc2-c2c1cc(C(N)=O)n2CCF [Example 52] | 1.41 | 1000 to 10000 | < 500 | 22.4 | 1000 to 10000 |  |  |  |
| NC(=O)c1cc2c([nH]1)-c1ccncc1O[C@H]2C1CCOCC1 (single isomer, unassigned) [Example 72] | 4.46 | 10000 to 100000 | 500 to 10000 | 406 | 10000 to 100000 |  |  |  |
| CCn1c(C(N)=O)cc2c1-c1ccncc1OC2(C)C [Example 43] | 1.41 |  |  | 36.8 |  | 3390 | 15 | 3500 |

From patent US10208056B2, “Condensed tricyclic compounds as protein kinase inhibitors” (FUNDACIÓN DEL SECTOR PÚBLICO ESTATAL CENTRO NACIONAL DE …, priority 2015, dated 2019)
